In patent US7261906B2, “Anti-cancer therapy agent of arsenic hexoxide (As4O6) of a natural chemical substance and its pharmaceutical composition” (priority 1998, dated 2007):

Columns and labels:
3T3-fibroblast cells = assay: Cytotoxicity in 3T3-fibroblast cells, time course (XTT method); format: cell-based, murine
Procedure: Cloned tumor cells of P388 leukemia, L1210 leukemia, L5178Y lymphoma, Colon26-M3.1 carcinoma, and B16-BL6 melanoma, from mice, and K562 leukemia, liver carcinoma HEP-G2, Hs578T breast cancer, AN-3-CA adenocarcinoma, DLD colon carcinoma, and HeLa epitheloid carcinoma, from human beings, were cultured in EMM, DMEM, or RMPI-1640 culture media containing 7.5% fetal bovine serum (FBS), as described in ATCC manual. […] Tumor cells in test wells were incubated in 5% CO2 incubator at 37° C. for 2 days.
For further study of the cytotoxicity of each substance on cloned tumor cells, 3T3-fibroblast cells were cultured in test wells as described in experiment 1.

[1] = system: colon26-M3.1 carcinoma cells; assay: Inhibitory effect of intravenously-administered HD-2 on cancer metastasis (lung); format: in vivo, mice
Procedure: B16-BL6 melanoma cells or colon26-M3.1 carcinoma cells were inoculated into mice and number of metastatic tumor masses appearing in lungs was counted. […] The peak activity was observed a: 1-mg dose with very high anticancer efficacy (86%). […] This indicated oral administration of HD-2 was quite effective for treatment of established cancer.
In this experiment, HD-2 was administered intravenously with dosage less than 500 mg/kg body weight per day.

[2] = 1 μg intravenous administration +1
[3] = 10 μg intravenous administration +1
[4] = 10 μg intravenous administration +7
[5] = 100 μg intravenous administration +1

N.N.[Cl][Pt][Cl] [cisplatin, reference compound]
morphological observation of cells (3T3-fibroblast cells; 3T3, 34 hours of treatment): partial necrosis of tumor cells or slowing of tumor growth | tumor growth (3T3-fibroblast cells; 3T3, after 24 hours of administration): partial inhibition of tumor growth | inhibitory rate [1, 2]: 34.2% | number of metastatic mass, mean ± SD [1, 2]: 102 ± 28 | inhibitory rate [1, 3]: 87.1% | number of metastatic mass, mean ± SD [1, 3]: 20 ± 13 | inhibitory rate [1, 4]: 50.0% | number of metastatic mass, mean ± SD [1, 4]: 77 ± 12 | inhibitory rate [1, 5]: 63.2% | number of metastatic mass, mean ± SD [1, 5]: 57 ± 22
